One assay has as its target Lck (h) (Homo sapiens, UniProt P06239). The assay can be described thus: Lck human STE kinase enzymatic radiometric assay. In kind it is biochemical. The note with it: read-out: Lck IC50 nM Range.
Assay [1] deals with T1, Recombinant (1-346) HPK1 (h) (Homo sapiens, UniProt Q92918).
T1 construct: Recombinant (1-346) HPK1 (h) is incubated with 8 mM MOPS pH 7.0
T1 sequence (Q92918 1-346): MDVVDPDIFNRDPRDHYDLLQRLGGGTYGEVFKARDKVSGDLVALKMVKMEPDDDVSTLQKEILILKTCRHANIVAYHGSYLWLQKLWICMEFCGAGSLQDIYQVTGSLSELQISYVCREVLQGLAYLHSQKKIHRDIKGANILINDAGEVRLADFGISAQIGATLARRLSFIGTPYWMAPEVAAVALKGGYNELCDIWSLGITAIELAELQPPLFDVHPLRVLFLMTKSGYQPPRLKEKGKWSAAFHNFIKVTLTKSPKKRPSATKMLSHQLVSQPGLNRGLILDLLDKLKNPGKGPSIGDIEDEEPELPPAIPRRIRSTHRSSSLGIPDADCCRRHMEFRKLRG
The assay can be described thus: HPK1 human STE kinase enzymatic radiometric assay. In kind it is biochemical. The settings on record: read-out: HPK1 IC50 nM Range. In a few lines:
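Recombinant HPK1 (1-346) incubated 40 min at RT with 0.33 mg/mL myelin basic protein and [gamma-33P]-ATP in 8 mM MOPS pH 7.0, 0.2 mM EDTA, 10 mM Mg acetate; reaction started with Mg/ATP. Stopped with 0.5% phosphoric acid, spotted on P30 filtermat, washed, scintillation counted. Compounds tested as 9-point 3-fold dilutions.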

A word on the IC50: it is the concentration that inhibits the measured activity by half.

SMILES strings stand for the structures. Where a name gives a salt, the structure may show the parent alone. Some results are limits rather than exact numbers.

Chain of Lck (h) (P06239 whole entry): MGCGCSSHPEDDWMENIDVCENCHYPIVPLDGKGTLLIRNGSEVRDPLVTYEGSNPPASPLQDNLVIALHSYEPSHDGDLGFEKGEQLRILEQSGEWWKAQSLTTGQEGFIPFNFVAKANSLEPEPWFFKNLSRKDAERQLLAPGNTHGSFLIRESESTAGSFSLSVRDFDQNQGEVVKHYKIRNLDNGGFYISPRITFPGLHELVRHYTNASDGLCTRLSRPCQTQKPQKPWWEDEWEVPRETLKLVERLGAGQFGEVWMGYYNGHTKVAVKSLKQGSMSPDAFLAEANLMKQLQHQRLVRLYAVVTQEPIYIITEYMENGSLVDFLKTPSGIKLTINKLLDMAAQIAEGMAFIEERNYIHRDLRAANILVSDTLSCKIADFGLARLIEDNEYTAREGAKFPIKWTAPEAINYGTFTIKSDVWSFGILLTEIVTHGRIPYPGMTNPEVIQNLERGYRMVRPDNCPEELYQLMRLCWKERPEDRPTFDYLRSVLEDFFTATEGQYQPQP

As to `CC(C)N1CCN(c2ccc(-c3nc(-c4ccc5c(=O)[nH]cc(F)c5c4)c(N)nc3F)cc2)CC1` [Example I-66, 6-(3-amino-5-fluoro-6-(4-(4-isopropylpiperazin-1-yl)phenyl)pyrazin-2-yl)-4-fluoroisoquinolin-1(2H)-one], the IC50 at Lck (h) was more than 1000 nM; in assay [1], 0.1 to 10 nM.

Consider `CC(C)N1CCN(c2ccc(-c3nc(-c4ccc5c(c4)CCNC5=O)c(N)nc3F)cc2)CC1` [Example I-1, 6-(3-amino-5-fluoro-6-(4-(4-isopropylpiperazin-1-yl)phenyl)pyrazin-2-yl)-3,4-dihydroisoquinolin-1(2H)-one], for which the concentration for half-maximal inhibition (IC50) at Lck (h) was more than 1000 nM; in assay [1], 0.1 to 10 nM.

As for `CN(C)Cc1cc(-c2nc(-c3ccc4c(c3)CCNC4=O)c(N)nc2F)ccc1C1CCOCC1` [Example I-59, 6-(3-amino-6-(3-((dimethylamino)methyl)-4-(tetrahydro-2H-pyran-4-yl)phenyl)-5-fluoropyrazin-2-yl)-3,4-dihydroisoquinolin-1(2H)-one], the IC50 is more than 1000 nM on Lck (h) and 0.1 to 10 nM in assay [1].

With `CC(C1CC1)N1CCN(c2ccc(-c3nc(-c4cc(F)c5c(c4)CCNC5=O)c(N)nc3F)cc2)CC1` (single isomer, unassigned) [Example I-29, 6-(3-amino-6-(4-(4-(1-cyclopropylethyl)piperazin-1-yl)phenyl)-5-fluoropyrazin-2-yl)-8-fluoro-3,4-dihydroisoquinolin-1(2H)-one], the figures for the IC50 (on Lck (h); in assay [1]) were 101 to 1000 nM and 0.1 to 10 nM, respectively.

As for `CN(C)Cc1cc(-c2nc(-c3cc(F)c4c(=O)[nH]cc(F)c4c3)c(N)nc2F)ccc1C1CCOCC1` [Example I-121, 6-(3-amino-6-(3-((dimethylamino)methyl)-4-(tetrahydro-2H-pyran-4-yl)phenyl)-5-fluoropyrazin-2-yl)-4,8-difluoroisoquinolin-1(2H)-one], the IC50 on Lck (h) was more than 1000 nM; in assay [1], 0.1 to 10 nM.

Take `Cc1nc2cc(-c3nc(-c4ccc(C5CCOCC5)c(CN(C)C)c4)c(F)nc3N)ccc2c(=O)[nH]1` [Example I-92, 7-(3-amino-6-(3-((dimethylamino)methyl)-4-(tetrahydro-2H-pyran-4-yl)phenyl)-5-fluoropyrazin-2-yl)-2-methylquinazolin-4(3H)-one]: the 50% inhibitory concentration (IC50) at Lck (h) is more than 1000 nM; in assay [1] it was 0.1 to 10 nM.

Take `Nc1nc(F)c(-c2ccc(N3CCOCC3)c(CN3CCC3)c2)nc1-c1cc(F)c2c(c1)CCNC2=O` [Example I-146, 6-(3-amino-6-(3-(azetidin-1-ylmethyl)-4-morpholinophenyl)-5-fluoropyrazin-2-yl)-8-fluoro-3,4-dihydroisoquinolin-1(2H)-one]: the half-maximal inhibitory concentration (IC50) at Lck (h) is more than 1000 nM; in assay [1], 0.1 to 10 nM.

As for `CC(C)N1CCN(c2ccc(-c3nc(-c4cc(F)c5c(=O)[nH]ccc5c4)c(N)nc3F)cc2)CC1` [Example I-21, 6-(3-amino-5-fluoro-6-(4-(4-isopropylpiperazin-1-yl)phenyl)pyrazin-2-yl)-8-fluoroisoquinolin-1(2H)-one], the IC50 on Lck (h) fell in the range of 101 to 1000 nM; in assay [1], 0.1 to 10 nM.

For `CCN(C)Cc1cc(-c2nc(-c3cc(F)c4c(c3)CCNC4=O)c(N)nc2F)ccc1C1CCOCC1` [Example I-165, 6-(3-amino-6-(3-((ethyl(methyl)amino)methyl)-4-(tetrahydro-2H-pyran-4-yl)phenyl)-5-fluoropyrazin-2-yl)-8-fluoro-3,4-dihydroisoquinolin-1(2H)-one], the IC50 is more than 1000 nM at Lck (h) and 0.1 to 10 nM in assay [1].

As for `CN(C)Cc1cc(-c2nc(-c3cc4c(cc3F)C(=O)NCC4)c(N)nc2F)ccc1C1CCOCC1` [Example I-60, 6-(3-amino-6-(3-((dimethylamino)methyl)-4-(tetrahydro-2H-pyran-4-yl)phenyl)-5-fluoropyrazin-2-yl)-7-fluoro-3,4-dihydroisoquinolin-1(2H)-one], the IC50 on Lck (h) was more than 1000 nM; in assay [1], 0.1 to 10 nM.

For the molecule `CC(C)N1C[C@H]2C[C@@]2(c2ccc(-c3nc(-c4cc(F)c5c(c4)CCNC5=O)c(N)nc3F)cc2)C1` [Example I-15, 6-(3-amino-5-fluoro-6-(4-((1R,5S)-3-isopropyl-3-azabicyclo[3.1.0]hexan-1-yl)phenyl)pyrazin-2-yl)-8-fluoro-3,4-dihydroisoquinolin-1(2H)-one formate], the IC50 at Lck (h) was more than 1000 nM; in assay [1], 0.1 to 10 nM.

The values are drawn from US20240425479A1, “HALO-SUBSTITUTED AMINO AZA-HETEROARYL COMPOUNDS AS INHIBITORS OF THE HAEMATOPOIETIC PROGENITOR KINASE 1 (HPK1)” (priority 2021, published 2024).
